This note sets out measurements from patent publication US12617780B2, “Benzothiophene, thienopyridine and thienopyrimidine derivatives for the modulation of sting” (CTXT PTY LTD, priority 2019, dated 2026).

Experiment [1] addresses T1, huSTING (WT) (Homo sapiens, UniProt Q86WV6, H232R).
T1 construct: made in house; host or cells: E. coli BL21 DE3
Description: Surface Plasmon Resonance (SPR) STING (WT). It is filed as binding. The note with it: biotinylated STING on streptavidin chip, 8° C.; 50% occupancy as surrogate KD. An excerpt: (§1) To determine binding affinities (50% occupancy as a surrogate Ko for the two binding events occurring) from dose-response experiments, binding responses at equilibrium were fit to a Hill equation, where the Hill coefficient was floated (52). For single-cycle kinetic experiments, sensorgrams were fit to a two-step kinetic model in which two analyte molecules bind sequentially (Biacore T200 or S200 Evaluation Software).

The target of experiment [2] is T2, huSTING (HAQ) (Homo sapiens, UniProt Q86WV6, G230A/H232R/R293Q).
T2 construct: made in house; host or cells: E. coli BL21 DE3
T2 sequence (Q86WV6 with tags, fused parts or gaps G230A/H232R/R293Q): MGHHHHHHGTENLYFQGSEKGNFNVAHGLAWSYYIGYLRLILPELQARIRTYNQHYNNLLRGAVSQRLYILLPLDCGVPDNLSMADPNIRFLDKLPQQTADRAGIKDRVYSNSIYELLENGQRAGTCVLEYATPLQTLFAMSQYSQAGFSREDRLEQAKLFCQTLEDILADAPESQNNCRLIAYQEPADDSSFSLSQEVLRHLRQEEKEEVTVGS
Description: Surface Plasmon Resonance (SPR) STING (HAQ). Type of experiment: binding. To be noted: biotinylated STING on streptavidin chip, 8° C.; 50% occupancy as surrogate KD.
From the text: as §1

The target in experiment [3] is T3, human HAQ isoform of STING (Homo sapiens, UniProt Q86WV6, G230A/H232R/R293Q/R71H).
T3 construct: host or cells: THP-1 STING Lucia ISG cells
T3 sequence (Q86WV6 whole entry R71H/G230A/H232R/R293Q, canonical isoform): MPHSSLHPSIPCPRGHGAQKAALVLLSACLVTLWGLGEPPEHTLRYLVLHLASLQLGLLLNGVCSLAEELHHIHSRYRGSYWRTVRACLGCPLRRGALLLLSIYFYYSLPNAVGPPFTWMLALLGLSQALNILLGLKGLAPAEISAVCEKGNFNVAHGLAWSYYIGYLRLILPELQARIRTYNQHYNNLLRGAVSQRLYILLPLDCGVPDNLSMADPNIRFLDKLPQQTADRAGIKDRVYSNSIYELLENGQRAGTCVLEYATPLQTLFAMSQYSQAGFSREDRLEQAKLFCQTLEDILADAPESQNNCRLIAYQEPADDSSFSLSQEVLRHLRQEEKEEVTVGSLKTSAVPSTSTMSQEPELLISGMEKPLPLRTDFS
Put plainly: THP-1 STING Lucia ISG reporter cell line assay. It is filed as cell-based. To be noted: 24 h incubation, QUANTI-Luc luminescence; normalised to 40 μM ML RR-S2 CDA; read-out: EC50 THP-1 STING Lucia ISG cells. As to the method:
(§2) THP-1 STING Lucia ISG cells (InvivoGen #thpl-isg) were cultured in RPMI-1640 containing 2 mM L-glutamine, 25 mM HEPES, 100 μg/mL Normocin (InvivoGen) and 10% heat-inactivated FBS. Cells were seeded at a density of 7×10^5 cells/mL, maintained at 37° C./5% CO2, and passaged every 3-4 days. Selection pressure was maintained by the addition of 100 μg/mL Zeocin every second passage.
(§3) Assay conditions: cells were harvested and resuspended at a concentration of 5×10^5 cells/mL in fresh growth media. Of this cell preparation 20 μL per well was dispensed into 384 well cell culture plates (Greiner, #781098X) and incubated at 37° C./5% CO2 for 2 hours.
(§4) Concentration Response Curves (commonly 11 doses) were prepared by 2.5 fold serial dilution starting from 10 mM compound stock solution in DMSO. Compound dilutions were transferred into the cell culture plates using a pintool (0.1 μL transfer), control wells were matched for DMSO. Positive control wells received ML RR-S2 CDA (Med Chem Express HY12885B) in 5 μL of media to a final concentration of 40 μM. All other wells received additional 5 μL of media only to equalise volume. The plates were incubated for 24 h at 37° C./5% CO2.
(§5) For the detection step, QUANTI-Luc (InvivoGen #rep-qlc1) was prepared according to manufacturer's instruction and 10 μL were added per well to the culture plates. Plates were shaken for ten seconds on an orbital shaker and left in the dark at room temperature for two minutes, before luminescence was read on a Perkin Elmer Envision plate reader.
(§6) Data analysis: Luminescence raw data was normalised % activity relative to the signal of the positive control wells and negative control wells which were not treated with compound. The following formula was used to calculate normalised % activity from raw signals: % activity=(sample−negative)/(positive−negative)
(§7) The THP-1 STING Lucia ISG cell EC50 provides an assessment of activity at the human HAQ isoform of STING. For assessing compound activity against the WT human STING isoform, an equivalent method was conducted where the cells used were THP-1-Dual KI-hSTING-R232 (InvivoGen #thpd-r232).

Experiment [4] addresses T4, WT human STING isoform (Homo sapiens, UniProt Q86WV6, H232R).
T4 construct: host or cells: THP-1-Dual KI-hSTING-R232
Put plainly: THP-1-Dual KI-hSTING-R232 reporter cell line assay. It is filed as cell-based. The note with it: 24 h incubation, QUANTI-Luc luminescence; normalised to 40 μM ML RR-S2 CDA; read-out: EC50 THP-1 Dual KI-hSTING-R232 cells. As to the method:
as §2, §3, §4, §5, §6, §7

T1 sequence (Q86WV6 with tags, fused parts or gaps H232R): as the sequence (Q86WV6 with tags, fused parts or gaps G230A/H232R/R293Q) above, with A100G, Q163R counted along it
T4 sequence (Q86WV6 whole entry H232R, canonical isoform): as the sequence (Q86WV6 whole entry R71H/G230A/H232R/R293Q, canonical isoform) above, with H71R, A230G, Q293R counted along it

Turning to `COc1c(C(N)=O)ccc2[nH]c(-c3c(C(=O)O)sc4c(Br)cnc(OC)c34)nc12` [Example 17, 7-Bromo-3-(5-carbamoyl-4-methoxy-1H-benzo[d]imidazol-2-yl)-4-methoxythieno[3,2-c]pyridine-2-carboxylic acid], the figures for the Kd in experiment [1] and in experiment [2] were 19.1 µM and 3.6 µM, respectively. For the same molecule, the EC50 in experiment [3] and in experiment [4] was greater than 40 µM each time.

In general, Kd refers to the equilibrium constant for the complex coming apart. As usually defined, the EC50 is the concentration at which the effect is half-maximal.
